In the assay the target is T1, human orexin type 2 receptor (hOX2R) (Homo sapiens, UniProt O43614).
T1 construct: expressed in transfected cells
T1 sequence (O43614 1-444): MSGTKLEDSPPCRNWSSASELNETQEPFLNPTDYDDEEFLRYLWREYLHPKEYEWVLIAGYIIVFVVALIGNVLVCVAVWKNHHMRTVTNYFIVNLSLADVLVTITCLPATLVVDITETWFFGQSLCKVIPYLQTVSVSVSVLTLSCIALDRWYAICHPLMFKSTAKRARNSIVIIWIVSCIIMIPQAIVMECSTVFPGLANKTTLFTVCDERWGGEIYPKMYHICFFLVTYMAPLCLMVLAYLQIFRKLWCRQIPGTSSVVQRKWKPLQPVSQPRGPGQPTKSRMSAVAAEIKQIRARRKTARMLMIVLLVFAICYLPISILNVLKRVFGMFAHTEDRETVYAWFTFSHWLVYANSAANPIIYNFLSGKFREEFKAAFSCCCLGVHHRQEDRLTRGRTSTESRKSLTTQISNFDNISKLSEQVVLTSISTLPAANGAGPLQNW
The assay can be described thus: Measurement of orexin type 2 receptor agonist activity (Fluo-4 calcium fluorescence, CHO cells forcibly expressing human OX2 receptor). The class given is cell-based. Particulars: test compound 3 μM, DMSO = 0%, orexin A (human) 10 nM = 100%. The text has this:
Experimental Example 1: Obtainment of Cell Stably Expressing Human Orexin Type 2 Receptor (hOX2R)
To obtain a cell clone stably expressing human orexin type 2 receptor, human orexin type 2 receptor cDNA was inserted into pcDNA3.1(+) plasmid vector (Invitrogen), and a plasmid DNA for expression of human orexin type 2 receptor (pcDNA3.1(+)/hOX2R) was cloned. The plasmid DNA was introduced into CHO-dhfr cell by an electroporation method, and human orexin type 2 receptor expressing clone cells were obtained by limiting dilution method by using G418 drug resistance as a selection marker.
Experimental Example 2: Measurement of Orexin Type 2 Receptor Agonist Activity
CHO cells forcibly expressing human OX2 receptor were seeded in each well of 384 well black transparent bottom plate (BD Falcon) at 7,500 cells/well, and cultured for one day in a 5% CO2 incubator at 37° C. After removal of the medium in the cell plate, assay buffer A containing a calcium indicator (HBSS (Life Technologies), 20 mM HEPES (Life Technologies), 0.1% BSA (Wako Pure Chemical Industries, Ltd.), 2.5 μg/mL Fluo-4 AM (DOJINDO Chemical), 0.08% Pluronic F127 (DOJINDO Chemical), 1.25 mM probenecid (DOJINDO Chemical)) was added at 30 μL/well. The plate was stood for 30 min in a 5% CO2 incubator at 37° C., and further stood at room temperature for 30 min. A test compound prepared by diluting with assay buffer B (HBSS, 20 mM HEPES, 0.1% BSA) was added at 10 μL/well, and the fluorescence value was measured by FDSSpCELL (Hamamatsu Photonics K.K.) every one sec for 1 min, and thereafter every two sec for 1 min 40 sec. The activity (%) of the test compound was calculated assuming that variation in the fluorescence value when DMSO was added instead of the test compound was 0% […], and variation in the fluorescence value when orexin A (human) (PEPTIDE INSTITUTE, INC.) was added at the final concentration of 10 nM was 100% […]. The activity of each compound at the concentration of 3 μM was shown below.
`CO[C@@H]1CN(C(=O)c2cc(C)ccc2C)C[C@H]1Oc1cc(F)cc(CS(=O)(=O)N2CCCC2c2ccccn2)c1` (relative stereo) [Example 91, trans-(2,5-dimethylphenyl)(3-(3-fluoro-5-(((2-(pyridin-2-yl)pyrrolidin-1-yl)sulfonyl)methyl)phenoxy)-4-methoxypyrrolidin-1-yl)methanone]: the “OX2R agonist activity (3 μM, %)” value turned out to be 70%. Next, `CO[C@@H]1CN(C(=O)c2cc(C)ccc2C)C[C@H]1Oc1cccc(C(C)S(=O)(=O)N(C)C2CCOCC2)c1` (relative stereo) [Example 143, trans-1-(3-((1-(2,5-dimethylbenzoyl)-4-methoxypyrrolidin-3-yl)oxy)phenyl)-N-methyl-N-(tetrahydro-2H-pyran-4-yl)ethanesulfonamide]: 92%; `CO[C@@H]1CN(C(=O)c2cc(C)ccc2C)C[C@H]1Oc1ccc(F)c(CS(=O)(=O)N2CCCC2c2ccccn2)c1` (relative stereo) [Example 87, trans-(2,5-dimethylphenyl)(3-(4-fluoro-3-(((2-(pyridin-2-yl)pyrrolidin-1-yl)sulfonyl)methyl)phenoxy)-4-methoxypyrrolidin-1-yl)methanone]: 67%. Next, `CO[C@@H]1CN(C(=O)c2cc(C)ccc2C)C[C@H]1Oc1cccc(C(F)S(=O)(=O)N2CCCC2c2ccccn2)c1` (relative stereo) [Example 110, trans-(2,5-dimethylphenyl)(3-(3-(fluoro((2-(pyridin-2-yl)pyrrolidin-1-yl)sulfonyl)methyl)phenoxy)-4-methoxypyrrolidin-1-yl)methanone]: 67%. As to `COC1CN(C(=O)c2cc(C)ccc2C)CC1Oc1cccc(CS(=O)(=O)N(C)[C@@H]2CCOC[C@H]2F)c1` (relative stereo) [Example 142, trans-1-(3-((1-(2,5-dimethylbenzoyl)-4-methoxypyrrolidin-3-yl)oxy)phenyl)-N-(3-fluorotetrahydro-2H-pyran-4-yl)-N-methylmethanesulfonamide], the “OX2R agonist activity (3 μM, %)” value is reported as 115%. In the case of `CO[C@@H]1CN(C(=O)c2cc(C)ccc2C)C[C@H]1Oc1cccc(NS(=O)(=O)N2CCOCC2)c1` (relative stereo) [Example 4, trans-N-(3-((1-(2,5-dimethylbenzoyl)-4-methoxypyrrolidin-3-yl)oxy)phenyl)morpholine-4-sulfonamide], the “OX2R agonist activity (3 μM, %)” value was found to be 87%. Next, `COC1CN(C(=O)c2cc(C)ccc2C)CC1Oc1cccc(NS(=O)(=O)N2C[C@H]3C[C@H]2C3)c1` (relative stereo) [Example 64, trans-N-(3-((1-(2,5-dimethylbenzoyl)-4-methoxypyrrolidin-3-yl)oxy)phenyl)-2-azabicyclo[2.1.1]hexane-2-sulfonamide]: 75%; `COc1ccc(Cl)cc1C(=O)N1C[C@@H](OC)[C@H](Oc2cccc(CS(=O)(=O)N3CCCC3c3ccccn3)c2)C1` (relative stereo) [Example 108, trans-(5-chloro-2-methoxyphenyl)(3-methoxy-4-(3-(((2-(pyridin-2-yl)pyrrolidin-1-yl)sulfonyl)methyl)phenoxy)pyrrolidin-1-yl)methanone]: 74%. Next, `COc1ccccc1C1CCCN1S(=O)(=O)Nc1cccc(O[C@@H]2CN(C(=O)c3cc(C)ccc3C)C[C@H]2OC)c1` (relative stereo) [Example 66, trans-N-(3-((1-(2,5-dimethylbenzoyl)-4-methoxypyrrolidin-3-yl)oxy)phenyl)-2-(2-methoxyphenyl)pyrrolidine-1-sulfonamide]: 72%; `CO[C@@H]1CN(C(=O)c2cc(C)ccc2C)C[C@H]1Oc1cccc(CS(=O)(=O)N2CCOCC2CO)c1` (relative stereo) [Example 11, trans-(2,5-dimethylphenyl)(3-(3-(((3-(hydroxymethyl)morpholin-4-yl)sulfonyl)methyl)phenoxy)-4-methoxypyrrolidin-1-yl)methanone]: 62%. Next, `CO[C@@H]1CN(C(=O)c2cc(C)ccc2C)C[C@H]1Oc1cccc(NS(=O)(=O)N2CCCC2c2ccncc2)c1` (relative stereo) [Example 52, trans-N-(3-((1-(2,5-dimethylbenzoyl)-4-methoxypyrrolidin-3-yl)oxy)phenyl)-2-(pyridin-4-yl)pyrrolidine-1-sulfonamide]: 83%; `COCC1CCCN1S(=O)(=O)Nc1cccc(O[C@@H]2CN(C(=O)c3cc(C)ccc3C)C[C@H]2OC)c1` (relative stereo) [Example 50, trans-N-(3-((1-(2,5-dimethylbenzoyl)-4-methoxypyrrolidin-3-yl)oxy)phenyl)-2-(methoxymethyl)pyrrolidine-1-sulfonamide]: 87%. For `CO[C@@H]1CN(C(=O)c2cc(C)ccc2C)C[C@H]1Oc1cccc(NS(=O)(=O)N2CCC23COC3)c1` (relative stereo) [Example 63, trans-N-(3-((1-(2,5-dimethylbenzoyl)-4-methoxypyrrolidin-3-yl)oxy)phenyl)-6-oxa-1-azaspiro[3.3]heptane-1-sulfonamide], the “OX2R agonist activity (3 μM, %)” value was found to be 77%.

Regarding `CO[C@@H]1CN(C(=O)c2cc(C)ccc2C)C[C@H]1Oc1cccc(C(C)S(=O)(=O)N2CCC[C@H]2c2ccccn2)c1` (stereo partly drawn) [Example 137, (2,5-dimethylphenyl)((3R,4R)-3-methoxy-4-(3-(1-(((2S)-2-(pyridin-2-yl)pyrrolidin-1-yl)sulfonyl)ethyl)phenoxy)pyrrolidin-1-yl)methanone], the “OX2R agonist activity (3 μM, %)” value is 88%. Next, `CO[C@@H]1CN(C(=O)c2cc(C)ccc2C)C[C@H]1Oc1cccc(NS(=O)(=O)N2CCCC2)c1` (relative stereo) [Example 22, trans-N-(3-((1-(2,5-dimethylbenzoyl)-4-methoxypyrrolidin-3-yl)oxy)phenyl)pyrrolidine-1-sulfonamide]: 65%. Next, `CO[C@@H]1CN(C(=O)c2cc(C)ccc2C)C[C@H]1Oc1cccc(CS(=O)(=O)N2CCCC2c2ccc(C)nc2C)c1` (relative stereo) [Example 123, trans-(2,5-dimethylphenyl)(3-(3-(((2-(2,6-dimethylpyridin-3-yl)pyrrolidin-1-yl)sulfonyl)methyl)phenoxy)-4-methoxypyrrolidin-1-yl)methanone]: 102%. On to `CCc1cccc(C)c1C(=O)N1C[C@@H](OC)[C@H](Oc2cccc(C(F)(F)S(=O)(=O)N(C)C3CCOCC3)c2)C1` (relative stereo) [Example 150, trans-1-(3-((1-(2-ethyl-6-methylbenzoyl)-4-methoxypyrrolidin-3-yl)oxy)phenyl)-1,1-difluoro-N-methyl-N-(tetrahydro-2H-pyran-4-yl)methanesulfonamide], for which the “OX2R agonist activity (3 μM, %)” value is listed as 43%.

Consider `CO[C@@H]1CN(C(=O)c2cc(C)ccc2C)C[C@H]1Oc1cccc(CS(=O)(=O)N(C)C2CCOCC2)c1` (relative stereo) [Example 31, trans-1-(3-((1-(2,5-dimethylbenzoyl)-4-methoxypyrrolidin-3-yl)oxy)phenyl)-N-methyl-N-(tetrahydro-2H-pyran-4-yl)methanesulfonamide], for which the “OX2R agonist activity (3 μM, %)” value is listed as 94%.

With `CCc1cccc(C)c1C(=O)N1C[C@@H](OC)[C@H](Oc2cccc(NS(=O)(=O)N3CC4CC4C3)c2)C1` (stereo partly drawn) [Example 134, N-(3-(((3R,4R)-1-(2-ethyl-6-methylbenzoyl)-4-methoxypyrrolidin-3-yl)oxy)phenyl)-3-azabicyclo[3.1.0]hexane-3-sulfonamide], the “OX2R agonist activity (3 μM, %)” value was found to be 108%.

Turning to `CO[C@@H]1CN(C(=O)c2c(C)cccc2C2CC2)C[C@H]1Oc1cccc(CS(=O)(=O)N(C)C2CCOCC2)c1` (relative stereo) [Example 160, trans-1-(3-((1-(2-cyclopropyl-6-methylbenzoyl)-4-methoxypyrrolidin-3-yl)oxy)phenyl)-N-methyl-N-(tetrahydro-2H-pyran-4-yl)methanesulfonamide], the “OX2R agonist activity (3 μM, %)” value is recorded as 111%.

The values above are taken from patent publication US11059780B2, “Substituted pyrrolidine compound and use thereof” (Takeda Pharmaceutical Company Limited, priority 2017, dated 2021).
